Experimental data: US12303592B2, “Formulations for parenteral delivery of compounds and uses thereof” (Wyeth, LLC, priority 2006, dated 2025)

Experiments:
[1] = test system: opioid receptors; conditions: found in U.S. Ser. No. 11/441,395 and 11/441,452; cited from earlier work
[2] = for inhibition of formation of 2′,2′ bis methylnaltrexone degradant / inhibition of formation of 7-dihydroxy-methylnaltrexone degradant: in presence of iron, 40° C. and room temperature
Description: FIG. 1A and FIG. 1B: Effect of CaEDTA and NaEDTA on the formation of 2′,2-bis methylnaltrexone in the presence of iron at 40° C. (FIG. 1A) and room temperature, […] (FIG. 1B).
FIGS. 2A, 2B, 2C, and 2D: Effect of CaEDTA on the formation of 7-dihydroxy methylnaltrexone in solutions. The effect of CaEDTA and NaEDTA on the formation of 7-dihydroxy methylnaltrexone in the presence of iron at 40° C. (FIG. 2A) and room temperature, 25° (FIG. 2B) was assessed. […] The effect of CaEDTA on the formation of 7-dihydroxy methylnaltrexone in solution following one month storage at room temperature (FIG. 2C) and at 40° C. (FIG. 2D) was assessed. The presence of CaEDTA reduced formation of 7-dihydroxy methylnaltrexone at either temperature.
FIG. 3A and FIG. 3B: Effect of CaEDTA in methylnaltrexone solution on the formation of a methylnaltrexone degradant having an RRT 0.79 (“the 0.79 degradant”). The effect of CaEDTA and NaEDTA on the formation of the 0.79 degradant at room temperature, 25° (FIG. 3A) and at 40° C. (FIG. 3B) was assessed. Calcium EDTA was not effective at inhibiting formation of the 0.79 degradant, and may increase levels of degradant formation.
Inhibition of metal-catalyzed formation of 2,2′bis methylnaltrexone. […] We have found by HPLC analysis (Method B) the 2,2′bis methylnaltrexone degradant results in a peak having an RRT about 1.55. Fe^3+ is an ion that can get into the liquid formulation from several sources. For example, it can be leached from stainless steel process equipment, syringe needles, stoppers and amber vials. EDTA, as a metal chelating agent sequesters the available Fe^3+ in the solution, thereby preventing catalysis of the undesirable metal-catalyzed reactions. Methylnaltrexone solutions were prepared in 0.9% NaCl, in the presence of iron and various concentrations of sodium EDTA and calcium EDTA. Used throughout the experiments sodium EDTA is EDTA disodium dihydrate, and the terms sodium EDTA, EDTA disodium dihydrate, and NaEDTA are used interchangeably throughout. Used throughout the experiments calcium EDTA is calcium EDTA disodium, and the terms calcium EDTA, calcium EDTA disodium, and CaEDTA are used interchangeably throughout. Formation of 2,2′bis methylnaltrexone was assessed at room temperature as well as at 40° C. Addition of either sodium or calcium EDTA solution was effective at inhibiting formation of the 2,2′bis methylnaltrexone degradant.
We have found Ca^2+ chelating agent provides additional inhibition of formation of a 7-dihydroxy-methylnaltrexone degradant as compared to Na^2+ chelating agent. Methylnaltrexone solutions were prepared in 0.9% NaCl, in the presence of iron and various concentrations of sodium EDTA and calcium EDTA. Formation of 7-dihydroxy-methylnaltrexone was assessed at room temperature as well as at 40° C.

Structure (SMILES) | opioid activity [1] | inhibition of formation of 2′,2′ bis methylnaltrexone degradant [2] | inhibition of formation of 7-dihydroxy-methylnaltrexone degradant [2] | inhibition of formation of the 0.79 degradant ([2]; room temperature and 40° C.)
C[N@@+]1(CC2CC2)CC[C@]23c4c5ccc(O)c4OC2C(=O)CCC3(O)C1C5 (single isomer, unassigned) [S—N isomer of methylnaltrexone] | opioid agonist |  |  | 
O.O.O=C([O-])CN(CCN(CC(=O)[O-])CC(=O)O)CC(=O)O.[Na+].[Na+] [sodium EDTA, EDTA disodium dihydrate] |  | effective inhibitors | may even increase levels | 
O=C([O-])CN(CCN(CC(=O)[O-])CC(=O)[O-])CC(=O)[O-].[Ca+2].[Na+].[Na+] [calcium EDTA, calcium EDTA disodium] |  | effective inhibitors | effective inhibitor | not effective
C[N+]1(CC2CC2)CCC23c4c5ccc(O)c4OC2C(=O)CCC3(O)C1C5 (single isomer, unassigned) [R—N isomer of methylnaltrexone] | opioid antagonist |  |  | 
